Residues, ends and D or L forms follow the SMILES beside them. *: point of attachment. FITC = O=C1OC2(c3ccc(O)cc3Oc3cc(O)ccc32)c2ccc(NC(=S)*)cc21
Key:
[1] = Drug distribution in Escherichia coli 25922 assessed as green fluorescence signal covered all the bacterial cell at 1 time MIC concentration incubated for 30 mins in absence of light by 3D-SIM super resolution microscopy; type: ADME; conditions: 0.5 h
[2] = Drug distribution in Escherichia coli 25922 assessed as red fluorescence signal at 1 time MIC concentration incubated for 30 mins in absence of light by Propidium iodide staining based assay; type: ADME; conditions: 0.5 h
[3] = Drug distribution in Staphylococcus aureus 29213 assessed as green fluorescence signal covered all the bacterial cell at 1 time MIC concentration incubated for 30 mins in absence of light by 3D-SIM super resolution microscopy; type: ADME; conditions: 0.5 h
[4] = Drug distribution in Staphylococcus aureus 29213 assessed as red fluorescence signal at 1 time MIC concentration incubated for 30 mins in absence of light by Propidium iodide staining based assay; type: ADME; conditions: 0.5 h
Staphylococcus aureus [5] = test: Antimicrobial activity against Methicillin-resistant Staphylococcus aureus 43300 assessed as absence bacterial growth measured after 18 to 24 hrs incubation by NCCLS method; type: functional; conditions: time 18-24 hrs
Staphylococcus aureus [6] = test: Antimicrobial activity against Methicillin-resistant Staphylococcus aureus 43300 assessed as bacterial killing measured after 16 hrs incubation; type: functional
Escherichia coli [7] = test: Antimicrobial activity against Escherichia coli 25922 assessed as absence bacterial growth measured after 18 to 24 hrs incubation by NCCLS method; type: functional; conditions: time 18-24 hrs
[8] = Cytotoxicity against human HEK-293T cells assessed as cell survival rate at 64 uM measured after 8 hrs by MTT assay relative to control; type: toxicity, cell-based; conditions: read-out: Activity
Escherichia coli [9] = test: Antimicrobial activity against Escherichia coli 25922 assessed as absence bacterial growth measured after 18 to 24 hrs incubation in presence of MgCl2 by NCCLS method; type: functional; conditions: time 18-24 hrs
Escherichia coli [10] = test: Antimicrobial activity against Escherichia coli 25922 assessed as absence bacterial growth measured after 18 to 24 hrs incubation in presence of NaCl by NCCLS method; type: functional; conditions: time 18-24 hrs
Bacillus cereus [11] = test: Antimicrobial activity against Bacillus cereus 1.932 assessed as absence bacterial growth measured after 18 to 24 hrs incubation by NCCLS method; type: functional; conditions: time 18-24 hrs
Acinetobacter baumannii [12] = test: Antimicrobial activity against Acinetobacter baumannii 1.6769 assessed as bacterial killing measured after 16 hrs incubation; type: functional
Pseudomonas aeruginosa [13] = test: Antimicrobial activity against Pseudomonas aeruginosa 27853 assessed as absence bacterial growth measured after 18 to 24 hrs incubation by NCCLS method; type: functional; conditions: time 18-24 hrs
[14] = Cytotoxicity against porcine IPEC-J2 cells assessed as cell survival rate measured after 8 hrs by MTT assay; type: toxicity, cell-based, Sus scrofa; conditions: pig
Salmonella typhimurium [15] = test: Antimicrobial activity against Salmonella typhimurium 14028 assessed as bacterial killing measured after 16 hrs incubation; type: functional, Salmonella enterica subsp. enterica serovar Typhimurium; conditions: Salmonella enterica
[16] = system: Staphylococcus epidermidis; test: Antimicrobial activity against Staphylococcus epidermidis 12228 assessed as absence bacterial growth measured after 18 to 24 hrs incubation by NCCLS method; type: functional; conditions: time 18-24 hrs
Escherichia coli [17] = test: Antimicrobial activity against Escherichia coli 25922 assessed as absence bacterial growth measured after 18 to 24 hrs incubation in presence of 25% serum by NCCLS method; type: functional; conditions: time 18-24 hrs
Staphylococcus aureus [18] = test: Antimicrobial activity against Staphylococcus aureus 29213 assessed as absence bacterial growth measured after 18 to 24 hrs incubation by NCCLS method; type: functional; conditions: time 18-24 hrs
[19] = Cytotoxicity against human HEK-293T cells assessed as cell survival rate measured after 8 hrs by MTT assay; type: toxicity, cell-based
[20] = Antimicrobial activity against Salmonella pullorum C7913 assessed as absence bacterial growth measured after 18 to 24 hrs incubation by NCCLS method; type: functional, Salmonella enterica subsp. enterica serovar Pullorum; conditions: Salmonella enterica, time 18-24 hrs
Salmonella typhimurium [21] = test: Antimicrobial activity against Salmonella typhimurium C7731 assessed as bacterial killing measured after 16 hrs incubation; type: functional, Salmonella enterica subsp. enterica serovar Typhimurium; conditions: Salmonella enterica
Bacillus cereus [22] = test: Antimicrobial activity against Bacillus cereus 1.932 assessed as bacterial killing measured after 16 hrs incubation; type: functional
Listeria monocytogenes [23] = test: Antimicrobial activity against Listeria monocytogenes 1.10753 assessed as bacterial killing measured after 16 hrs incubation; type: functional
Escherichia coli [24] = test: Antimicrobial activity against Escherichia coli K88 assessed as absence bacterial growth measured after 18 to 24 hrs incubation by NCCLS method; type: functional; conditions: time 18-24 hrs
Escherichia coli [25] = test: Antimicrobial activity against Escherichia coli 25922 assessed as absence bacterial growth measured after 18 to 24 hrs incubation in presence of 12.5% serum by NCCLS method; type: functional; conditions: time 18-24 hrs
Salmonella typhimurium [26] = test: Antimicrobial activity against Salmonella typhimurium C7731 assessed as absence bacterial growth measured after 18 to 24 hrs incubation by NCCLS method; type: functional, Salmonella enterica subsp. enterica serovar Typhimurium; conditions: Salmonella enterica, time 18-24 hrs
[27] = Cytotoxicity against mouse RAW264.7 cells assessed as cell survival rate at 32 to 64 uM measured after 8 hrs by MTT assay relative to control; type: toxicity, cell-based; conditions: dose 32-64 µM, read-out: Activity
Staphylococcus aureus [28] = test: Antimicrobial activity against Staphylococcus aureus 25923 assessed as bacterial killing measured after 16 hrs incubation; type: functional
[29] = Antimicrobial activity against Salmonella pullorum C7913 assessed as bacterial killing measured after 16 hrs incubation; type: functional, Salmonella enterica subsp. enterica serovar Pullorum; conditions: Salmonella enterica
Enterococcus faecalis [30] = test: Antimicrobial activity against Enterococcus faecalis 29212 assessed as bacterial killing measured after 16 hrs incubation; type: functional
[31] = system: Staphylococcus epidermidis; test: Antimicrobial activity against Staphylococcus epidermidis 12228 assessed as bacterial killing measured after 16 hrs incubation; type: functional
[32] = Hemolytic activity in human RBC at effective concentration at 128 uM measured after 1 hr by microplate reader relative to control; type: toxicity, cell-based, Erythrocyte; conditions: human red blood cells (erythrocytes), read-out: Activity
Escherichia coli [33] = test: Antimicrobial activity against Escherichia coli K88 assessed as bacterial killing measured after 16 hrs incubation; type: functional
Enterococcus faecalis [34] = test: Antimicrobial activity against Enterococcus faecalis 29212 assessed as absence bacterial growth measured after 18 to 24 hrs incubation by NCCLS method; type: functional; conditions: time 18-24 hrs
[35] = Cytotoxicity against mouse RAW264.7 cells assessed as cell survival rate measured after 8 hrs by MTT assay; type: toxicity, cell-based
Salmonella typhimurium [36] = test: Antimicrobial activity against Salmonella typhimurium 14028 assessed as absence bacterial growth measured after 18 to 24 hrs incubation by NCCLS method; type: functional, Salmonella enterica subsp. enterica serovar Typhimurium; conditions: Salmonella enterica, time 18-24 hrs
Acinetobacter baumannii [37] = test: Antimicrobial activity against Acinetobacter baumannii 1.6769 assessed as absence bacterial growth measured after 18 to 24 hrs incubation by NCCLS method; type: functional; conditions: time 18-24 hrs
Pseudomonas aeruginosa [38] = test: Antimicrobial activity against Pseudomonas aeruginosa 27853 assessed as bacterial killing measured after 16 hrs incubation; type: functional
Escherichia coli [39] = test: Antimicrobial activity against Escherichia coli 25922 assessed as bacterial killing measured after 16 hrs incubation; type: functional
Escherichia coli [40] = test: Antimicrobial activity against Escherichia coli 25922 assessed as absence bacterial growth measured after 18 to 24 hrs incubation in presence of KCl by NCCLS method; type: functional; conditions: time 18-24 hrs
Escherichia coli [41] = test: Antimicrobial activity against Escherichia coli 25922 assessed as absence bacterial growth measured after 18 to 24 hrs incubation in presence of 50% serum by NCCLS method; type: functional; conditions: time 18-24 hrs
Escherichia coli [42] = test: Antimicrobial activity against Escherichia coli 25922 assessed as absence bacterial growth measured after 18 to 24 hrs incubation in presence of FeCl3 by NCCLS method; type: functional; conditions: time 18-24 hrs
Escherichia coli [43] = test: Antimicrobial activity against Escherichia coli 25922 assessed as absence bacterial growth measured after 18 to 24 hrs incubation in presence of ZnCl2 by NCCLS method; type: functional; conditions: time 18-24 hrs
Escherichia coli [44] = test: Antimicrobial activity against Escherichia coli 25922 assessed as absence bacterial growth measured after 18 to 24 hrs incubation in presence of NH4Cl by NCCLS method; type: functional; conditions: time 18-24 hrs
Erythrocyte = test: Hemolytic activity in human RBC at effective concentration measured after 1 hr by microplate reader analysis; type: toxicity, cell-based
[45] = Cytotoxicity against porcine IPEC-J2 cells assessed as cell survival rate at 64 uM measured after 8 hrs by MTT assay relative to control; type: toxicity, cell-based, Sus scrofa; conditions: pig, read-out: Activity
Staphylococcus aureus [46] = test: Antimicrobial activity against Staphylococcus aureus 29213 assessed as absence bacterial growth measured after 18 to 24 hrs incubation by NCCLS m; type: functional; conditions: time 18-24 hrs
Staphylococcus aureus [47] = test: Antimicrobial activity against Staphylococcus aureus 29213 assessed as bacterial killing measured after 16 hrs incubation; type: functional
Listeria monocytogenes [48] = test: Antimicrobial activity against Listeria monocytogenes 1.10753 assessed as absence bacterial growth measured after 18 to 24 hrs incubation by NCCLS method; type: functional; conditions: time 18-24 hrs

CC(C)C[C@H](NC(=O)[C@H](CCCCN)NC(=O)CNC(=O)CNC(=O)[C@H](CCCCN)NC(=O)[C@H](CC(C)C)NC(=O)[C@H](Cc1c[nH]c2ccccc12)NC(=O)[C@H](CC(C)C)NC(=O)[C@H](CCCCN)NC(=O)CNC(=O)[C@H](C)NC(=O)[C@H](CCCCN)NC(=O)[C@H](CC(C)C)NC(=O)[C@H](Cc1c[nH]c2ccccc12)NC(=O)[C@H](CC(C)C)NC(=O)[C@H](CCCCN)NC(=O)CNC(=S)Nc1ccc2c(c1)C(=O)OC21c2ccc(O)cc2Oc2cc(O)ccc21)C(=O)N[C@@H](Cc1c[nH]c2ccccc12)C(=O)N[C@@H](CC(C)C)C(=O)N[C@@H](CCCCN)C(=O)NCC(N)=O ({FITC}-GKLWLKAGKLWLKGGKLWLKG-NH2)
Drug uptake [1]: Active
Drug uptake [2]: Active
Drug uptake [3]: Active
Drug uptake [4]: Active

H-GKLWLKGAKLWLKGGKLWLKG-NH2
MIC (Staphylococcus aureus [5]): 4 µM
MBC (Staphylococcus aureus [6]): 8 µM
MIC (Escherichia coli [7]): 2 µM
viability at 8 h, 64 µM [8]: < 50%
MIC (Escherichia coli [9]): 8 µM
MIC (Escherichia coli [10]): 16 µM
MIC (Bacillus cereus [11]): 2 µM
MBC (Acinetobacter baumannii [12]): 4 µM
MIC (Pseudomonas aeruginosa [13]): 4 µM
IC50 at 8 h [14]: > 64 µM
MBC (Salmonella typhimurium [15]): 8 µM
MIC [16]: 8 µM
MIC (Escherichia coli [17]): > 32 µM
MIC (Staphylococcus aureus [18]): 8 µM
IC50 at 8 h [19]: > 64 µM
MIC [20]: 2 µM
MBC (Salmonella typhimurium [21]): 8 µM
MBC (Bacillus cereus [22]): 2 µM
MBC (Listeria monocytogenes [23]): > 32 µM
MIC (Escherichia coli [24]): 1 µM
MIC (Escherichia coli [25]): 32 µM
MIC (Salmonella typhimurium [26]): 4 µM
viability at 8 h, up to 64 µM [27]: 60%
MBC (Staphylococcus aureus [28]): 8 µM
MBC [29]: 2 µM
MBC (Enterococcus faecalis [30]): 16 µM
MBC [31]: 8 µM
hemolysis at 1 h, 128 µM [32]: < 10%
MBC (Escherichia coli [33]): 1 µM
MIC (Enterococcus faecalis [34]): 16 µM
IC50 at 8 h [35]: > 64 µM
MIC (Salmonella typhimurium [36]): 2 µM
MIC (Acinetobacter baumannii [37]): 4 µM
MBC (Pseudomonas aeruginosa [38]): 8 µM
MBC (Escherichia coli [39]): 2 µM
MIC (Escherichia coli [40]): 2 µM
MIC (Escherichia coli [41]): > 32 µM
MIC (Escherichia coli [42]): 2 µM
MIC (Escherichia coli [43]): 1 µM
MIC (Escherichia coli [44]): 2 µM
HC10 (Erythrocyte): > 128 µM
viability at 8 h, 64 µM [45]: < 50%
MIC (Staphylococcus aureus [46]): 8 µM
MBC (Staphylococcus aureus [47]): 8 µM
MIC (Listeria monocytogenes [48]): > 32 µM

H-GKLWLKGGKLWLKGAKLWLKG-NH2
MIC (Staphylococcus aureus [5]): 2 µM
MBC (Staphylococcus aureus [6]): 4 µM
MIC (Escherichia coli [7]): 2 µM
viability at 8 h, 64 µM [8]: > 80%
MIC (Escherichia coli [9]): 8 µM
MIC (Escherichia coli [10]): 16 µM
MIC (Bacillus cereus [11]): 4 µM
MBC (Acinetobacter baumannii [12]): 2 µM
MIC (Pseudomonas aeruginosa [13]): 4 µM
IC50 at 8 h [14]: > 64 µM
MBC (Salmonella typhimurium [15]): 4 µM
MIC [16]: 4 µM
MIC (Escherichia coli [17]): > 32 µM
MIC (Staphylococcus aureus [18]): 4 µM
IC50 at 8 h [19]: > 64 µM
MIC [20]: 1 µM
MBC (Salmonella typhimurium [21]): 8 µM
MBC (Bacillus cereus [22]): 4 µM
MBC (Listeria monocytogenes [23]): > 32 µM
MIC (Escherichia coli [24]): 1 µM
MIC (Escherichia coli [25]): 32 µM
MIC (Salmonella typhimurium [26]): 4 µM
viability at 8 h, up to 64 µM [27]: 60%
MBC (Staphylococcus aureus [28]): 4 µM
MBC [29]: 2 µM
MBC (Enterococcus faecalis [30]): 4 µM
MBC [31]: 4 µM
hemolysis at 1 h, 128 µM [32]: < 10%
MBC (Escherichia coli [33]): 1 µM
MIC (Enterococcus faecalis [34]): 4 µM
IC50 at 8 h [35]: > 64 µM
MIC (Salmonella typhimurium [36]): 4 µM
MIC (Acinetobacter baumannii [37]): 2 µM
MBC (Pseudomonas aeruginosa [38]): 8 µM
MBC (Escherichia coli [39]): 2 µM
MIC (Escherichia coli [40]): 2 µM
MIC (Escherichia coli [41]): > 32 µM
MIC (Escherichia coli [42]): 2 µM
MIC (Escherichia coli [43]): 2 µM
MIC (Escherichia coli [44]): 2 µM
HC10 (Erythrocyte): > 128 µM
viability at 8 h, 64 µM [45]: > 80%
MIC (Staphylococcus aureus [46]): 4 µM
MBC (Staphylococcus aureus [47]): 4 µM
MIC (Listeria monocytogenes [48]): > 32 µM
